The source made the active and inactive calls. No cut-off for these calls is given here.
What was measured:
[1] = system: H9c2; experiment: Cytoprotective activity against OGD-induced myocardial ischemic injury in rat H9c2 cells assessed as cell viability at 50 uM preincubated for 12 hrs followed by exposure to OGD condition for 3 hrs by CCK8 assay (reference value: 49.23 to 50.05 %); type: functional; details: time 15 hrs, read-out: Activity
[2] = system: Mus musculus; experiment: Cardioprotective activity in ISO-induced heart failure C57BL/6J mouse assessed as ejection fraction in heart at 20 mg/kg/day, po for 14 days by echocardiography (reference value: 49.55 +/- 2.41 %); type: functional; details: time 14 day
[3] = system: H9c2; experiment: Cytoprotective activity against OGD-induced myocardial ischemic injury in rat H9c2 cells assessed as decrease in cell death at 5 to 50 uM preincubated for 12 hrs followed by exposure to OGD condition for 3 hrs by crystal violet staining based analysis; type: functional; details: dose 5-50 µM, time 15.0 hrs
[4] = system: H9c2; experiment: Cytoprotective activity against OGD-induced myocardial ischemic injury in rat H9c2 cells assessed as decrease in LDH level at 5 to 50 uM preincubated for 12 hrs followed by exposure to OGD condition for 3 hrs by UV absorption analysis; type: functional, cell-based; details: dose 5-50 µM, time 15.0 hrs
[5] = system: H9c2; experiment: Cytoprotective activity against OGD-induced myocardial ischemic injury in rat H9c2 cells assessed as decrease in ROS level at 5 to 50 uM preincubated for 12 hrs followed by exposure to OGD condition for 3 hrs by DCFH-DA probe based analysis; type: functional, cell-based; details: dose 5-50 µM, time 15.0 hrs
[6] = system: Mus musculus; experiment: Cardioprotective activity in ISO-induced heart failure C57BL/6J mouse assessed as fractional shortening in heart at 20 mg/kg/day, po for 14 days by echocardiography (reference value: 24.49 +/- 1.49 %); type: functional; details: time 14 day
[7] = system: Mus musculus; experiment: Improvement in motor ability in ISO-induced heart failure C57BL/6J mouse assessed as increase in time of remote motion with rotarod at 5 to 20 mg/kg/day, po for 14 days; type: functional, organism-based; details: dose 5-20 mg/kg/day, time 14.0 day
[8] = system: Mus musculus; experiment: Inhibition of cardiac fibrosis in ISO-induced heart failure C57BL/6J mouse at 5 to 20 mg/kg/day, po for 14 days; type: functional, organism-based; details: dose 5-20 mg/kg/day, time 14.0 day
[9] = system: Mus musculus; experiment: Inhibition of cardiomyocyte hypertrophy in ISO-induced heart failure C57BL/6J mouse at 5 to 20 mg/kg/day, po for 14 days by WGA staining based analysis; type: functional, organism-based; details: dose 5-20 mg/kg/day, time 14.0 day
[10] = system: Mus musculus; experiment: Inhibition of cardiomyocyte hypertrophy in ISO-induced heart failure C57BL/6J mouse assessed as decrease in ANP level administered orally daily for 14 days by Western blot analysis; type: functional, organism-based; details: dose 5-20 mg/kg/day, route po, time 14.0 day
[11] = system: H9c2; experiment: Inhibition of cardiomyocyte hypertrophy in ISO-treated rat H9c2 cells at 50 uM preincubated for 12 hrs followed by ISO treatment for 36 hrs by FITC-Phalloidin staining based analysis; type: functional, cell-based; details: time 48.0 hrs
[12] = system: H9c2; experiment: Inhibition of apoptosis in ISO-treated rat H9c2 cells by Annexin V-FITC/PI staining based flow cytometry; type: functional, cell-based; details: dose 5-50 µM
[13] = system: H9c2; experiment: Inhibition of apoptosis in ISO-treated rat H9c2 cells assessed as increase in Bcl-2 level by Western blot analysis; type: functional, cell-based; details: dose 5-50 µM
[14] = system: Mus musculus; experiment: Inhibition of cardiomyocyte hypertrophy in ISO-induced heart failure C57BL/6J mouse assessed as decrease in PI3K phosphorylation in heart tissue administered orally daily for 14 days by Western blot analysis; type: functional, organism-based; details: dose 5-20 mg/kg/day, route po, time 14.0 day
[15] = system: Mus musculus; experiment: Inhibition of cardiomyocyte hypertrophy in ISO-induced heart failure C57BL/6J mouse assessed as increase in Bcl-2 level in heart tissue at 5 to 20 mg/kg/day, po for 14 days by Western blot analysis; type: functional, organism-based; details: dose 5-20 mg/kg/day, time 14.0 day
[16] = system: Mus musculus; experiment: Inhibition of cardiomyocyte hypertrophy in ISO-induced heart failure C57BL/6J mouse assessed as decrease in ratio of p-GSK-3beta to GSK-3beta levels in heart tissue administered orally daily for 14 days by Western blot analysis; type: functional, organism-based; details: dose 5-20 mg/kg/day, route po, time 14.0 day
[17] = Metabolic stability in mouse liver microsomes assessed as half life measured for 5 to 60 mins in presence of NADPH by LC-MS/MS analysis; type: ADME, Microsome; details: time 5-60 min
[18] = Metabolic stability in mouse liver microsomes assessed as intrinsic clearance measured for 5 to 60 mins in presence of NADPH by LC-MS/MS analysis; type: ADME, Microsome; details: time 5-60 min, read-out: CLH
[19] = molecular target: T1, CYP1A2 (Homo sapiens, UniProt P05177); experiment: Inhibition of CYP1A2 in human liver microsomes preincubated for 10 mins followed by NADPH addition measured after 10 mins by LC/MS/MS analysis relative to control; type: ADME, Microsome; details: time 20 min
T1 sequence (P05177 whole entry): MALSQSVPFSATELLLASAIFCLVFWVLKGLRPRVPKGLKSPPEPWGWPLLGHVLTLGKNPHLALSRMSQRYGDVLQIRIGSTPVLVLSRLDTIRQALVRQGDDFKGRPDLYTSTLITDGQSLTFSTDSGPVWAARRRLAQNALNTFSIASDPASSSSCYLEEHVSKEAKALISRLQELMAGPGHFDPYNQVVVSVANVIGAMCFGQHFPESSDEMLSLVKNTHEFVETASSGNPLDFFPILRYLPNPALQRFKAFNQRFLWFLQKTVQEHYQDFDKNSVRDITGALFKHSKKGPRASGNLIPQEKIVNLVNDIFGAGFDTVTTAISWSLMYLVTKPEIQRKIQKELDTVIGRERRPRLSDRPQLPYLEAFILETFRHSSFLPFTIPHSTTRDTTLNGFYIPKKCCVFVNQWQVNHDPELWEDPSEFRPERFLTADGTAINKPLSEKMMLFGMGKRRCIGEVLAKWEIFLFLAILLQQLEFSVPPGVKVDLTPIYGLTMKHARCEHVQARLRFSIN

[20] = molecular target: CYP2C19 (Homo sapiens, UniProt P33261); experiment: Inhibition of CYP2C19 in human liver microsomes preincubated for 10 mins followed by NADPH addition measured after 10 mins by LC/MS/MS analysis relative to control; type: ADME, Microsome; details: time 20 min
[21] = molecular target: CYP2D6 (Homo sapiens, UniProt P10635); experiment: Inhibition of CYP2D6 in human liver microsomes preincubated for 10 mins followed by NADPH addition measured after 10 mins by LC/MS/MS analysis relative to control; type: ADME, Microsome; details: time 20 min
[22] = molecular target: Voltage-gated inwardly rectifying potassium channel KCNH2 (Homo sapiens, UniProt Q12809); experiment: Inhibition of hERG at 30 uM; type: toxicity
[23] = Tmax in C57/6J mouse at 5 mg/kg, iv measured for 24 hrs; type: ADME, organism-based; details: in vivo
[24] = AUC (0 to t) in C57/6J mouse at 5 mg/kg, iv measured for 24 hrs; type: ADME, organism-based; details: in vivo
[25] = MRT (0 to t) in C57/6J mouse at 5 mg/kg, iv measured for 24 hrs; type: ADME, organism-based; details: in vivo
[26] = Half life in C57/6J mouse at 20 mg/kg, po measured for 24 hrs; type: ADME, organism-based; details: in vivo
[27] = AUC (0 to t) in C57/6J mouse at 20 mg/kg, po measured for 24 hrs; type: ADME, organism-based; details: in vivo
[28] = MRT (0 to t) in C57/6J mouse at 20 mg/kg, po measured for 24 hrs; type: ADME, organism-based; details: in vivo
[29] = Toxicity in C57BL/6J mouse assessed as change in relative organ weights at 400 mg/kg, po administered as single dose measured for 7 days; type: organism-based; details: in vivo, 168 h, time 7 day

Sequence of CYP2C19 (P33261 whole entry): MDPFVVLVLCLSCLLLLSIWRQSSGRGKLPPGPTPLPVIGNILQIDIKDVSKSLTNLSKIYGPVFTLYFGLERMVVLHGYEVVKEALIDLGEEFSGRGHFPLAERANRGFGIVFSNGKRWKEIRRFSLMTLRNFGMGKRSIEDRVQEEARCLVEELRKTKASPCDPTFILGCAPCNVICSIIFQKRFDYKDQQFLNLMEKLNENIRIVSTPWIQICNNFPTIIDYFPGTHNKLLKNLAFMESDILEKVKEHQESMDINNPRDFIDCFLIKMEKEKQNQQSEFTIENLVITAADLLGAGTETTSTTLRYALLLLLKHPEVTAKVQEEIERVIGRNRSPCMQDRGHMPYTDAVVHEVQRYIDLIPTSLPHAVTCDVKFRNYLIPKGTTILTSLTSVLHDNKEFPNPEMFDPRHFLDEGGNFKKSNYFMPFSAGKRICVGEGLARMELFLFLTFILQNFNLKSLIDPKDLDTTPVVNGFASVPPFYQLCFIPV
Sequence of CYP2D6 (P10635 whole entry): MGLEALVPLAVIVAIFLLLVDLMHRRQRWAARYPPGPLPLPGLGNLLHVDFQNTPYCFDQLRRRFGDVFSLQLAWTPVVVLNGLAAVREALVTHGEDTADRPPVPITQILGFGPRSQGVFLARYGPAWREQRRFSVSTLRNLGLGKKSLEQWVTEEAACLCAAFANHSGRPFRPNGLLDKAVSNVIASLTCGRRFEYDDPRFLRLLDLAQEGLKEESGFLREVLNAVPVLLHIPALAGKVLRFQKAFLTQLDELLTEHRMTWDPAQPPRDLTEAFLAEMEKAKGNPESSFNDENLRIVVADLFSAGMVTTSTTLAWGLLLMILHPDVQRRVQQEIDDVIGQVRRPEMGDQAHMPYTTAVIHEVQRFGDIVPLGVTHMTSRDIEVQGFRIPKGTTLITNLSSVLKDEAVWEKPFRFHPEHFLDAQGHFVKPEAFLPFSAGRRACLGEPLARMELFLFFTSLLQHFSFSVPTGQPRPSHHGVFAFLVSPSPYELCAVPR
Sequence of Voltage-gated inwardly rectifying potassium channel KCNH2 (Q12809 whole entry): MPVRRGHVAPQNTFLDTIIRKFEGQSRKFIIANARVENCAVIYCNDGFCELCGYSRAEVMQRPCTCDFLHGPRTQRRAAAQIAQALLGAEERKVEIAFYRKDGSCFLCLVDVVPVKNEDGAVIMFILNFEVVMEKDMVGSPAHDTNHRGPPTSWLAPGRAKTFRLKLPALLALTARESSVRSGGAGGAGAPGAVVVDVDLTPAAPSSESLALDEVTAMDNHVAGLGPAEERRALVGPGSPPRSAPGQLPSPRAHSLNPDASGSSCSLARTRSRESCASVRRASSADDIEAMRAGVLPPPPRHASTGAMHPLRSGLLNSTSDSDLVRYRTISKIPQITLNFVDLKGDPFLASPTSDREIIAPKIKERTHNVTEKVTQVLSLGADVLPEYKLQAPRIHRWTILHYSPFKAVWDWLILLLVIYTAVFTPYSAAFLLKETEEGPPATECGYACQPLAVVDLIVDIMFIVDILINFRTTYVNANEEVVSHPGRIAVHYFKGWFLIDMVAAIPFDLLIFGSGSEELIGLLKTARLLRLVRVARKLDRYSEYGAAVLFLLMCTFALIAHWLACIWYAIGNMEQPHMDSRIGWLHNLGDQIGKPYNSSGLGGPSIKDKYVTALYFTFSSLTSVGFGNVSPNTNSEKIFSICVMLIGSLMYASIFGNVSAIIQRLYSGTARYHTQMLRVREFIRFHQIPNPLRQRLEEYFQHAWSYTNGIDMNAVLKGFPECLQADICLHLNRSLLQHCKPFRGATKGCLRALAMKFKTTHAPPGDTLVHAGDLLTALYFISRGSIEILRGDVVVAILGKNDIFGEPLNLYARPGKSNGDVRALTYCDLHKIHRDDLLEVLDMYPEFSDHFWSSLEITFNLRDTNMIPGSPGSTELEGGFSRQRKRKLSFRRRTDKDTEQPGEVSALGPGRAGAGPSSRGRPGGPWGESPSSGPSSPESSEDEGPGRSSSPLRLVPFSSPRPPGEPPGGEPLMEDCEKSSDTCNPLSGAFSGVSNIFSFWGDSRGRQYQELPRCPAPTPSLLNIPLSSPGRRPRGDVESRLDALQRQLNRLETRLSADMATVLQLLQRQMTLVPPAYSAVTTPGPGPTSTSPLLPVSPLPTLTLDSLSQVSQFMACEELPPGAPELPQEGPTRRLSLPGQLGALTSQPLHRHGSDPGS

OC[C@H]1O[C@@H](O[C@@H]2OC=C[C@H]3[C@H](O)[C@@H]4O[C@]4(COc4ccc(C(F)(F)F)cc4)[C@@H]23)[C@H](O)[C@@H](O)[C@@H]1O
viability at 50 µM [1]: 72%
Activity [2]: 58.46%
Activity [3]: Active; Exhibited Superior Protective Efficacy Than Catal-Pol
Activity [4]: Active
Activity [5]: Active
Activity [6]: 31.27%
Activity [7]: Active
inhibition [8]: Active
inhibition [9]: Active
inhibition [10]: Dose-dependent-effect; Restored Anp Level To Physiological Level
inhibition [11]: Active
inhibition [12]: Active; Exhibited Significantly Greater Decrease In Apoptotic Rate
inhibition [13]: Dose-dependent-effect
inhibition [14]: Dose-dependent-effect
inhibition [15]: Active
inhibition [16]: Dose-dependent-effect
half-life [17]: > 2.42 h
CLint scaled [18]: < 38 mL/min/kg
inhibition at 10 min [19]: 8%
inhibition at 10 min [20]: 10.2%
inhibition at 10 min [21]: 4.3%
inhibition (INH) [22]: Not_active
Tmax [23]: 4.98 min
AUC(0-t) at 24 h [24]: 1090 ng·h/mL
MRT last at 24 h [25]: 0.52 h
half-life [26]: 1.01 h
AUC(0-t) at 24 h [27]: 1820 ng·h/mL
MRT last at 24 h [28]: 2.43 h
Activity [29]: Non-toxic

Reference: ChEMBL document CHEMBL6153118, “Structure Optimization of Natural Product Catalpol to Obtain Novel and Potent Analogs against Heart Failure” (J Med Chem, 2025)
